Here are results for 1 molecule from US20220306653A1, “MACROCYCLIC INHIBITORS OF MCL-1” (Janssen Pharmaceutica NV, priority 2019, published 2022).

Structures are written as SMILES. “And” between values parts separate entries of the source, which are not always exact repeats. Equal values may be shown once. Read-outs that look alike come from different tables or passages of the source.

Usually IC50 stands for the concentration at which inhibition is half-maximal.

The subject of test [1] is Molp8 multiple myeloma cell line. The test can be described thus: Molp8 multiple myeloma cell line survival assay using Annexin V and 7AAD. The class given is cell-based, human. To be noted: live cell percent by Annexin V/7AAD flow cytometry, 3 days incubation, each independent run listed individually, read-out: MOLP8 Apoptosis IC50. The text has this:
Molp8 multiple myeloma cell line survival assay using Annexin V and 7AAD.
The Annexin V/7AAD principle is based on the location of phosphatidylserine in the plasma membrane and the integrity of the membrane barrier. During early apoptosis, phosphatidylserine loses its normal distribution patterns in the inner leaflet of the plasma membrane and appears on the exterior of the plasma membrane. Annexin proteins are calcium dependent phospholipid binding proteins and can bind phosphatidylserine on the outer membrane during cell death. The viability dye 7AAD is excluded from entering cells with intact plasma membranes but accumulates in cells that have lost membrane integrity. Annexin Fitc is excited by the 488 nm laser (max excitation: 490 nm, max emission: 525 nm) as is 7AAD (excitation: 488 nm, emission: 650 nm), which allows this assay to be completed on any multicolor flow cytometer.
The assay conditions were optimized using the following 1× reaction buffer: 5 mM HEPES (4-(2-hydroxyethyl)-1-piperazineethanesulfonic acid), 70 mM NaCl, 1.25 mM CaCl2, pH 7.4.
The Molp 8 cells were multiple myeloma, human, in suspension (*cells were counted 2× per week and culture density maintained between 0.5 and 1.5×10^6 cells per ml).
On Day 1, 5×10^4 live cells per well were plated in a 96-well U-bottom plate, with the cells plated in 100 uL RPMI+10% FBS. An 11-point compound dilution plate was prepared in 3-fold steps (Final concentration range 10 μM-0.1 nM) and added at a concentration of 1 μL per well. The plate was then incubated for 3 days at 37° C. and 5% CO2.
On Day 4, the cells were pelleted and the media discarded. The cells were then resuspended in 50 μL AnnexinV-Fitc (1:40 dilution) and 7AAD (1:100 dilution) in Annexin binding buffer, then incubated for 30 min @ room temperature in the dark. 50 μL binding buffer (100 uL total volume) was then added to the cells. There was no wash step required.
Within 2 hours, PeCy5 (7AAD) and Fitc (Annexin) channels were recorded using BD Canto, collecting a minimum per singlet of 10,000 events.
The activity of a test compound was calculated based on the live cell percentage. • LC=Median of the low control values • =Low control: cells without treatment (no greater than 100% live) • HC=Median of the high control values • =High control: cells treated with 10 uM drug (no less than 0% live)
A best-fit curve was fitted by a minimum sum of squares method to the plot of live cell percent vs. compound concentration. From this an IC50 value (inhibitory concentration causing 50% cytotoxicity) was obtained. An estimate of the slope of the plot in terms of the Hill coefficient was also obtained.
In general terms: A flow cytometer gives signals particle by particle.

In test [2] the test system is MOLP8 cells. The test can be described thus: MOLP8 CellEvent Caspase-3/7 Green apoptosis activation assay (IncuCyte live-cell kinetic readout). It counts as cell-based. Particulars: each independent run listed. The protocol:
MCL-1 is a regulator of apoptosis and is highly over-expressed in tumor cells that escape cell death. The assay evaluates the cellular potency of small-molecule compounds targeting regulators of the apoptosis pathway, primarily MCL-1, Bfl-1, Bcl-2, and other proteins of the Bcl-2 family. Protein-protein inhibitors disrupting the interaction of anti-apoptotic regulators with BH3-domain proteins initiate apoptosis.
Activation of the apoptotic pathway was measured using the CellEvent™ Caspase-3/7 Green ReadyProbes™ Reagent (Thermo Fisher C10423, C10723). This assay produces a green fluorescent stain in cells that enter the apoptosis pathway. CellEvent® Caspase-3/7 Green reagent is a four amino acid peptide (DEVD) conjugated to a nucleic acid-binding dye that is non-fluorescent when not bound to DNA. The CellEvent® Caspase-3/7 Green reagent is intrinsically non-fluorescent, as the DEVD peptide inhibits binding of the dye to DNA. Upon activation of caspase-3/7 in apoptotic cells, the DEVD peptide is cleaved and the free dye can bind DNA, generating a bright green fluorescence. The activation of Caspase-3 and Caspase-7 is downstream of inhibition of MCL-1 or other apoptosis inhibiting proteins in cell lines that are dependent on them.
The live-cell readout on the IncuCyte permits tracking over time of the Caspase activation. […] The IncuCyte readout also allows one to normalize for cell number, as the suspension cells are hard to distribute evenly.
Signals were measured every 2 h for a duration of 22 h. The ratio of the Caspase mask to the Confluence mask, per image, as raw data, was calculated and the kinetic trace for every well was exported to Genedata Screener for analysis.
In Genedata Screener values for 6 h, 12 h, and 22 h from the kinetic traces were extracted. The values were normalized against negative controls (untreated cells). A standard dose-response analysis was performed on the normalized data.
The following data was reported at each of the following three aforementioned time points: (a) The dose-response curve, (b) The qAC50 and qAC50 Mode, and (c) Max Activity.
Cells were maintained in culture medium containing 10% Heat Inactivated (HI) FBS, 2 mM L-Glutamine and 50 µg/mL Gentamycin phenol red free RPMI-1640. Cells were split at 0.4 million/mL twice a week.
On Day 1, plates containing individual wells with test compounds at 10 mM concentration, 150 nL per well. The final concentrations range from […] compound (and no compound control) and compounds were thawed at room temperature for 1 hour. 25 μl of prewarmed medium was added into each well by multidrop (column 1, 3-22, 24), followed by addition of DMSO control (0.6% DMSO) in column 2. The plate was sealed using Breathe-Easy® sealing membrane and shaken for 30 min at room temperature to dissolve the test compound(s) in medium. The plate was then kept in the incubator for 1 hour at 37° C., 5% CO2.
MOLP8 cells in medium at […] (20000/50 μl final in assay) were prepared with CellEvent™ Caspase-3/7 Green Detection Reagent at 4 μM (2 μM final in assay). Once prepared, the cells were added to the test compound plate in an amount of 20000 and the plate was immediately placed in the IncuCyte and imaging started using following settings: 10× objective, 2 s exposure time in green channel, interval of 2 h, acquisition stopped after 22 h.
For analysis in IncuCyte, a Basic Analysis protocol was defined to calculate the “confluence” and “caspase” areas from the “Phase” and “green” images, respectively, as follows: (a) Confluence: Segmentation Adjustment 1, Hole Fill 0, Adjust Size −2, No filters (b) Caspase: Top-Hat segmentation, Radius 10, Threshold 0.3 GCU, Edge Split On with sensitivity 0, Hole Fill 0, Adjust Size 1, and filter on a minimum Area of 20 μm^2. The analyzer is trained on a sufficient number of positive and negative control wells, as well as compound treated wells, verifying that the “confluence” layer detects both live and dead (condensed) cells. […]

Take `Cc1c(C(=O)O)n2c3ccc(Cl)c(c13)-c1c(nn(C)c1C)CN(C)Cc1cc(n(C)n1)CSc1cc(c3ccccc3c1)OCCC2` [Compound 3, 15-chloro-13,21,25,61,4-pentamethyl-11H,21H,61H-10-oxa-8-thia-4-aza-1(4,1)-indola-2(4,3),6(3,5)-dipyrazola-9(3,1)-naphthalenacyclotridecaphane-12-carboxylic acid]: the IC50 in test [1] (Homo sapiens, MOLP-8, 72 h) stood at 200 nM; in test [1] it was 256 nM. Moreover, the AC50 is 178 nM and 251 nM in test [2] (6 h, read-out: MOLP8 Caspase 3/7 AC50 at 6 h); 263 nM and 195 nM in test [2] (12 h, read-out: MOLP8 Caspase 3/7 AC50 at 12 h); 347 nM in test [2] (Homo sapiens, MOLP-8, 6 h, 6 h, read-out: MOLP8 Caspase 3/7 AC50 at 6 h); 363 nM in test [2] (Homo sapiens, MOLP-8, 12 h, 12 h, read-out: MOLP8 Caspase 3/7 AC50 at 12 h).
